In data set [1] the test system is human embryonic stem cell derived neural stem cells (NSCs). As to the kind of experiment: Neural Stem Cell Proliferation Assay (neurogenesis assay, ATP levels by CellTiterGlo). The format is cell-based. The settings on record: 96 h, compound concentration at which 150% activity of control (100%) is reached, NSC proliferation by ATP level after 4 days incubation, dose response 8 μM to 8 nM. A digest of the protocol:
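Human ESC-derived NSCs (dual SMAD inhibition) seeded 4 h before compounds, 11-point 2-fold series 8 μM–8 nM; 4 days at 37 °C, 5% CO2. ATP by CellTiterGlo luminescence as cell-number proxy, response as % of media control (0.25% DMSO); EC150 = concentration giving 150% of control.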

Each structure is given as a SMILES string.

For `N#Cc1cc(-c2ccc(Cl)cc2)c2c(c1)cc1n2CCNC1=O` [Example 77, 6-(4-Chloro-phenyl)-1-oxo-1,2,3,4-tetrahydro-pyrazino[1,2-a]indole-8-carbonitrile], the melting point came out at 316.5 °C. Besides, in data set [1], the EC (150% of control) came to 0.02 µM.

Compound `N#Cc1cc(-c2ccc(F)cc2)c2c(c1)cc1n2CCNC1=O` [Example 78, 6-(4-Fluoro-phenyl)-1-oxo-1,2,3,4-tetrahydro-pyrazino[1,2-a]indole-8-carbonitrile] registered a melting point of 297.5 °C. In addition, in data set [1], the EC (150% of control) was 0.012 µM.

Turning to `COc1ccc(-c2cc(C#N)cc3cc4n(c23)CCNC4=O)cc1` [Example 79, 6-(4-Methoxy-phenyl)-1-oxo-1,2,3,4-tetrahydro-pyrazino[1,2-a]indole-8-carbonitrile], the melting point was found to be 278.5 °C. In data set [1], this compound displayed an EC (150% of control) of 0.004 µM.

Take `Cc1c2n(c3c(-c4ccccc4)cc(F)cc13)CCNC2=O` [Example 80, 8-Fluoro-10-methyl-6-phenyl-3,4-dihydro-2H-pyrazino[1,2-a]indol-1-one]: the melting point turned out to be 244 °C. The EC (150% of control) in data set [1] came to 0.098 µM.

Regarding `Cc1ccc(-c2cc(F)cc3c(C)c4n(c23)CCNC4=O)cc1` [Example 81, 8-Fluoro-10-methyl-6-p-tolyl-3,4-dihydro-2H-pyrazino[1,2-a]indol-1-one], the melting point is 226 °C. In data set [1], the EC (150% of control) was 0.014 µM.

Compound `Cc1c2n(c3c(-c4ccc(C(F)(F)F)cc4)cc(F)cc13)CCNC2=O` [Example 82, 8-Fluoro-10-methyl-6-(4-trifluoromethyl-phenyl)-3,4-dihydro-2H-pyrazino[1,2-a]indol-1-one] showed a melting point of 269.5 °C. The same compound displayed an EC (150% of control) in data set [1] of 0.036 µM.

In the case of `Cc1c2n(c3c(-c4ccncc4)cc(F)cc13)CCNC2=O` [Example 83, 8-Fluoro-10-methyl-6-pyridin-4-yl-3,4-dihydro-2H-pyrazino[1,2-a]indol-1-one], the melting point was determined as 290 °C. In addition, the EC (150% of control) in data set [1] amounted to 0.039 µM.

For `Cc1c2n(c3c(-c4cc(F)cc(F)c4)cc(F)cc13)CCNC2=O` [Example 84, 6-(3,5-Difluoro-phenyl)-8-fluoro-10-methyl-3,4-dihydro-2H-pyrazino[1,2-a]indol-1-one], the melting point turned out to be 250 °C. Further, the EC (150% of control) in data set [1] worked out at 0.15 µM.

With `Cc1c2n(c3c(-c4ccc(Cl)c(F)c4)cc(F)cc13)CCNC2=O` [Example 85, 6-(4-Chloro-3-fluoro-phenyl)-8-fluoro-10-methyl-3,4-dihydro-2H-pyrazino[1,2-a]indol-1-one], the melting point worked out at 216 °C. In addition, the EC (150% of control) in data set [1] worked out at 0.04 µM.

For `Cc1c2n(c3c(-c4ccc(Cl)c(Cl)c4)cc(F)cc13)CCNC2=O` [Example 86, 6-(3,4-Dichloro-phenyl)-8-fluoro-10-methyl-3,4-dihydro-2H-pyrazino[1,2-a]indol-1-one], the melting point turned out to be 224 °C. In addition, in data set [1], the EC (150% of control) is 0.05 µM.

Take `Cc1c2n(c3c(-c4cccc(F)c4)cc(F)cc13)CCNC2=O` [Example 87, 8-Fluoro-6-(3-fluoro-phenyl)-10-methyl-3,4-dihydro-2H-pyrazino[1,2-a]indol-1-one]: the melting point amounted to 222 °C. Also, the EC (150% of control) in data set [1] was determined as 0.1 µM.

`Cc1c2n(c3c(-c4ccccc4)cc(Cl)cc13)CCNC2=O` [Example 88, 8-Chloro-10-methyl-6-phenyl-3,4-dihydro-2H-pyrazino[1,2-a]indol-1-one]: the melting point is 230.5 °C. The EC (150% of control) in data set [1] was found to be 0.053 µM.

In turn, `Cc1ccc(-c2cc(Cl)cc3c(C)c4n(c23)CCNC4=O)cc1` [Example 89, 8-Chloro-10-methyl-6-p-tolyl-3,4-dihydro-2H-pyrazino[1,2-a]indol-1-one] yielded a melting point of 251.5 °C. The compound also came in with an EC (150% of control) in data set [1] of 0.01 µM.

Compound `Cc1c2n(c3c(-c4ccc(C(F)(F)F)cc4)cc(Cl)cc13)CCNC2=O` [Example 90, 8-Chloro-10-methyl-6-(4-trifluoromethyl-phenyl)-3,4-dihydro-2H-pyrazino[1,2-a]indol-1-one] gave a melting point of 260.5 °C. The same compound showed an EC (150% of control) in data set [1] of 0.017 µM.

As for `Cc1c2n(c3c(-c4ccncc4)cc(Cl)cc13)CCNC2=O` [Example 91, 8-Chloro-10-methyl-6-pyridin-4-yl-3,4-dihydro-2H-pyrazino[1,2-a]indol-1-one], the melting point amounted to 295 °C. Besides, the EC (150% of control) in data set [1] worked out at 0.017 µM.

Take `N#Cc1cc(-c2ccncc2)c2c(c1)cc1n2CCNC1=O` [Example 92, 1-Oxo-6-pyridin-4-yl-1,2,3,4-tetrahydro-pyrazino[1,2-a]indole-8-carbonitrile]: the melting point was determined as 315.5 °C. This compound had an EC (150% of control) in data set [1] of 0.047 µM.

Consider `N#Cc1cc(-c2ccccc2)c2c(c1)cc1n2CCNC1=O` [Example 93, 1-Oxo-6-phenyl-1,2,3,4-tetrahydro-pyrazino[1,2-a]indole-8-carbonitrile], for which the melting point came out at 265.5 °C. In addition, in data set [1], the EC (150% of control) worked out at 0.035 µM.

`Cc1ccc(-c2cc(C#N)cc3cc4n(c23)CCNC4=O)cc1` [Example 94, 1-Oxo-6-p-tolyl-1,2,3,4-tetrahydro-pyrazino[1,2-a]indole-8-carbonitrile] registered a melting point of 285.5 °C. Moreover, the EC (150% of control) in data set [1] worked out at 0.011 µM.

`N#Cc1cc(-c2ccc(C(F)(F)F)cc2)c2c(c1)cc1n2CCNC1=O` [Example 95, 1-Oxo-6-(4-trifluoromethyl-phenyl)-1,2,3,4-tetrahydro-pyrazino[1,2-a]indole-8-carbonitrile] registered a melting point of 359 °C. This compound also registered an EC (150% of control) in data set [1] of 0.018 µM.

The compound `Cc1c2n(c3c(-c4cccc(F)c4)cc(Cl)cc13)CCNC2=O` [Example 96, 8-Chloro-6-(3-fluoro-phenyl)-10-methyl-3,4-dihydro-2H-pyrazino[1,2-a]indol-1-one] registered a melting point of 239 °C. Moreover, in data set [1], the EC (150% of control) was determined as 0.15 µM.

In the case of `Cc1c2n(c3c(-c4ccc(Cl)c(Cl)c4)cc(Cl)cc13)CCNC2=O` [Example 97, 8-Chloro-6-(3,4-dichloro-phenyl)-10-methyl-3,4-dihydro-2H-pyrazino[1,2-a]indol-1-one], the melting point worked out at 240 °C. The compound also registered an EC (150% of control) in data set [1] of 0.056 µM.

`Cc1c2n(c3c(-c4ccc(Cl)c(F)c4)cc(Cl)cc13)CCNC2=O` [Example 98, 8-Chloro-6-(4-chloro-3-fluoro-phenyl)-10-methyl-3,4-dihydro-2H-pyrazino[1,2-a]indol-1-one] yielded a melting point of 242.5 °C. In addition, the EC (150% of control) in data set [1] came out at 0.019 µM.

`Cc1c2n(c3c(-c4cc(F)cc(F)c4)cc(Cl)cc13)CCNC2=O` [Example 99, 8-Chloro-6-(3,5-difluoro-phenyl)-10-methyl-3,4-dihydro-2H-pyrazino[1,2-a]indol-1-one] registered a melting point of 241 °C. Moreover, the EC (150% of control) in data set [1] came to 0.12 µM.

As for `Cc1c2n(c3c(-c4ccc(F)cc4F)cc(Cl)cc13)CCNC2=O` [Example 100, 8-Chloro-6-(2,4-difluoro-phenyl)-10-methyl-3,4-dihydro-2H-pyrazino[1,2-a]indol-1-one], the melting point is 238 °C. In data set [1], this compound returned an EC (150% of control) of 0.009 µM.

The values above are taken from patent US9284321B2, “Piperazino[1,2-a]indol-1-ones and [1,4]diazepino[1,2-a]indol-1-one” (Hoffmann-La Roche Inc., priority 2012, dated 2016).
